# Assays:
# [1] = Solubility of compound in phosphate buffer at pH 8 using crystalline form of sample; format: physicochemical
# [2] = Solubility of compound in water using crystalline form of sample; format: physicochemical
# Cytochrome P450 2D6 = Cytochrome P450 2D6 (Homo sapiens, UniProt P10635); assay: Inhibition of CYP2D6 in human liver microsomes using dextromethorphan as substrate incubated for 15 mins in presence of NADPH generating system by LC-MS/MS analysis; format: ADME
# Cytochrome P450 2C9 = Cytochrome P450 2C9 (Homo sapiens, UniProt P11712); assay: Inhibition of CYP2C9 in human liver microsomes using diclofenac as substrate incubated for 15 mins in presence of NADPH generating system by LC-MS/MS analysis; format: ADME
# Cytochrome P450 2C8 = Cytochrome P450 2C8 (Homo sapiens, UniProt P10632); assay: Inhibition of CYP2C8 in human liver microsomes using amodiaquine as substrate incubated for 15 mins in presence of NADPH generating system by LC-MS/MS analysis; format: ADME
# Cytochrome P450 1A2 = Cytochrome P450 1A2 (Homo sapiens, UniProt P05177); assay: Inhibition of CYP1A2 in human liver microsomes using phenacetin as substrate incubated for 15 mins in presence of NADPH generating system by LC-MS/MS analysis; format: ADME
# [3] = Oral bioavailability in Wistar rat at 1 to 3 mg/kg administered via gavage using EtOH/PEG400/H2O 10/40/50 formulation by LC-MS/MS analysis; format: ADME, organism-based; settings: in vivo, dose 1-3 mg/kg
# [4] = Apparent permeability in human Caco-2 cells measured after 2 hrs by HPLC analysis; format: ADME, cell-based
# Prostacyclin receptor = Prostacyclin receptor (Homo sapiens, UniProt P43119); assay: Displacement of [3H]PGD2 from full-length recombinant human IP receptor expressed in HEK293 cell membranes measured after 60 mins by scintillation counting method
# [5] = Clearance in Wistar rat at 0.3 to 1 mg/kg, iv administered as bolus dose or 15 mins infusion by LC-MS/MS analysis; format: ADME, organism-based; settings: Wistar, in vivo, dose 0.3-1 mg/kg
# [6] = Protein binding in pooled human plasma assessed as unbound fraction incubated for 6 hrs by LC-MS/MS analysis based equilibrium dialysis method; format: ADME, cell-free
# [7] = target: Prostaglandin E2 receptor EP3 subtype (Homo sapiens, UniProt P43115); assay: Displacement of [3H]prostaglandin E2 from full-length recombinant human EP3 receptor expressed in HEK293 cell membranes measured after 120 mins by scintillation counting method
# [8] = target: Prostaglandin E2 receptor EP2 subtype (Homo sapiens, UniProt P43116); assay: Displacement of [3H]prostaglandin E2 from full-length recombinant human EP2 receptor expressed in HEK293 cell membranes measured after 120 mins by scintillation counting method
# [9] = target: Prostaglandin E2 receptor EP1 subtype (Homo sapiens, UniProt P34995); assay: Displacement of [3H]prostaglandin E2 from full-length recombinant human EP1 receptor expressed in HEK293 cell membranes measured after 60 mins by scintillation counting method
# [10] = target: T1, Prostaglandin F2-alpha receptor (Rattus norvegicus, UniProt P43118); assay: Antagonist activity at rat FPR stably expressed in CHO cells assessed as inhibition of PGF2alpha-induced calcium flux preincubated for 10 mins followed by PGF2alpha stimulation and measured for 120 secs by fluo-8 AM dye based fluorescence assay; format: cell-based
# [11] = target: T1, Prostaglandin F2-alpha receptor; assay: Antagonist activity at FPR in Wistar rat assessed as inhibition of PGF2alpha-induced uterus contraction; format: tissue-based
# [12] = target: Prostaglandin F2-alpha receptor (Mus musculus, UniProt P43117); assay: Antagonist activity at FPR in mouse NIH3T3 cells assessed as inhibition of PGF2alpha-induced MCP1 production measured after 24 hrs by Bio-Rad assay; format: cell-based
# [13] = target: Prostaglandin D2 receptor 2 (Homo sapiens, UniProt Q9Y5Y4); assay: Displacement of [3H]PGD2 from full-length recombinant human CRTH2 receptor expressed in CHOK1 cell membranes measured after 120 mins by scintillation counting method; design: species or system CHO-K1
# [14] = Protein binding in pooled rat plasma assessed as unbound fraction incubated for 6 hrs by LC-MS/MS analysis based equilibrium dialysis method; format: ADME, cell-free
# [15] = Maximum oral bioavailability in human hepatocytes based well stirred liver model at 1 uM measured after 2 to 90 mins by LC-MS/MS analysis; format: ADME, Hepatocyte; settings: time 2-90 min, read-out: Fmax
# [16] = Maximum oral bioavailability in dog hepatocytes based well stirred liver model at 1 uM measured after 2 to 90 mins by LC-MS/MS analysis; format: ADME, Canis lupus familiaris, Hepatocyte; settings: time 2-90 min, read-out: Fmax
# [17] = Drug metabolism in human hepatocytes assessed as oxidation at the pyrrolidine ring at 1 uM measured after 1 to 4 hrs by LC-MS/MS analysis; format: ADME, cell-based, Hepatocyte; settings: time 1-4 hrs
# [18] = Drug metabolism in human hepatocytes assessed as formation of hydroxylated and ring-opened pyrrolidine derivative at 1 uM measured after 1 to 4 hrs by LC-MS/MS analysis; format: ADME, cell-based, Hepatocyte; settings: time 1-4 hrs
# [19] = Drug metabolism in rat hepatocytes assessed as oxidation at the pyrrolidine ring at 1 uM measured after 1 to 4 hrs by LC-MS/MS analysis; format: ADME, cell-based, Hepatocyte; settings: time 1-4 hrs
# [20] = Drug metabolism in rat hepatocytes assessed as formation of hydroxylated and ring-opened pyrrolidine derivative at 1 uM measured after 1 to 4 hrs by LC-MS/MS analysis; format: ADME, cell-based, Hepatocyte; settings: time 1-4 hrs
# [21] = Drug metabolism in dog hepatocytes assessed as glucuronidation at 1 uM measured after 1 to 4 hrs by LC-MS/MS analysis; format: ADME, cell-based, Canis lupus familiaris, Hepatocyte; settings: time 1-4 hrs
# [22] = Clearance in Balb/c mouse at 1 mg/kg, iv administered as bolus dose or 3 mg/kg, po administered via gavage by LC-MS/MS analysis; format: ADME, organism-based; settings: in vivo
# [23] = Volume of distribution at steady state in Balb/c mouse at 1 mg/kg, iv administered as bolus dose or 3 mg/kg, po administered via gavage by LC-MS/MS analysis; format: ADME, organism-based; settings: in vivo, read-out: Vdss
# [24] = Terminal half life in Balb/c mouse at 1 mg/kg, iv administered as bolus dose by LC-MS/MS analysis; format: ADME, organism-based; settings: in vivo, read-out: beta t1/2 (converted)
# [25] = Oral bioavailability in Balb/c mouse at 3 mg/kg administered via gavage by LC-MS/MS analysis; format: ADME, organism-based; settings: in vivo
# [26] = Volume of distribution at steady state in Wistar rat at 1 mg/kg, iv administered as bolus dose or 3 mg/kg, po administered via gavage by LC-MS/MS analysis; format: ADME, organism-based; settings: in vivo, read-out: Vdss
# [27] = Clearance in Beagle dog at 0.5 mg/kg, iv administered as 15 mins infusion or 1 mg/kg, po administered via gavage by LC-MS/MS analysis; format: ADME, organism-based, Canis lupus familiaris; settings: in vivo
# [28] = Volume of distribution at steady state in Beagle dog at 0.5 mg/kg, iv administered as 15 mins infusion or 1 mg/kg, po administered via gavage by LC-MS/MS analysis; format: ADME, organism-based, Canis lupus familiaris; settings: in vivo, read-out: Vdss
# [29] = Terminal half life in Beagle dog at 0.5 mg/kg, iv administered as 15 mins infusion by LC-MS/MS analysis; format: ADME, organism-based, Canis lupus familiaris; settings: in vivo, read-out: beta t1/2 (converted)
# [30] = Oral bioavailability in Beagle dog at 1 mg/kg administered via gavage by LC-MS/MS analysis; format: ADME, organism-based, Canis lupus familiaris; settings: in vivo
# [31] = Toxicity in Wistar rat up to 300 mg/kg/day, po administered for 14 days; format: organism-based; settings: in vivo, 336 h, time 14 day
# [32] = Toxicity in Beagle dog up to 1 g/kg/day, po administered for 14 days; format: organism-based, Canis lupus familiaris; settings: in vivo, 1000 mg/kg, 336 h, time 14 day
# T1 sequence (P43118 whole entry): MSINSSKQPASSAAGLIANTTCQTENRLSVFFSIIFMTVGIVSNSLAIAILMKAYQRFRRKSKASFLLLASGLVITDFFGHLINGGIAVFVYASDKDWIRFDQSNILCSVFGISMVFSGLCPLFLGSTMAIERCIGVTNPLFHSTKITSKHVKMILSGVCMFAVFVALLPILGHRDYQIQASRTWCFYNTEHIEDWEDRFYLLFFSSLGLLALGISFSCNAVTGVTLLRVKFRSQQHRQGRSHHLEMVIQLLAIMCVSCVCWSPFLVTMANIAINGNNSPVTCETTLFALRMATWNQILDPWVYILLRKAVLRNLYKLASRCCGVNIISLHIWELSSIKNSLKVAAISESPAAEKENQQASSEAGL
# Chain of Prostacyclin receptor (P43119 whole entry, the tested form may be a part): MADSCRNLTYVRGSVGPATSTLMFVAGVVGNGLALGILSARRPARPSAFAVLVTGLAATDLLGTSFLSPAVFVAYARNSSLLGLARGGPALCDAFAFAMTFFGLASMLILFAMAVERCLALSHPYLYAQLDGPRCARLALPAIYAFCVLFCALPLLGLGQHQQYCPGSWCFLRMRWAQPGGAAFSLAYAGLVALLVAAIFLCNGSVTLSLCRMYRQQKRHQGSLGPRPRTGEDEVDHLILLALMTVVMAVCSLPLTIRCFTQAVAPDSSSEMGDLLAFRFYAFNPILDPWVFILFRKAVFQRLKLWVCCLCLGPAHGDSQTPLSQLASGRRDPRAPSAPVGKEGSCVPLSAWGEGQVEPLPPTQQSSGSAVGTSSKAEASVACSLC
# Chain of Prostaglandin F2-alpha receptor (Mus musculus, UniProt P43117) (P43117 whole entry): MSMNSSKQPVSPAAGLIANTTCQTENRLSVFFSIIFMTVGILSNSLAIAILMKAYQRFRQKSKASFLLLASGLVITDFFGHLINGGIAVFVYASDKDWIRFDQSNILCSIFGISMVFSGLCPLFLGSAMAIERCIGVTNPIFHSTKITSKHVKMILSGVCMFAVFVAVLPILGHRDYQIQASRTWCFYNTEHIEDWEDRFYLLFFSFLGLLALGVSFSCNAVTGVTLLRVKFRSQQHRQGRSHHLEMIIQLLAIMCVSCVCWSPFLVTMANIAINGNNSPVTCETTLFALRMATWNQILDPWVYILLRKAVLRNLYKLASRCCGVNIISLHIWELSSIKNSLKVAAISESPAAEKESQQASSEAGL
# Chain of Prostaglandin E2 receptor EP1 subtype (P34995 whole entry): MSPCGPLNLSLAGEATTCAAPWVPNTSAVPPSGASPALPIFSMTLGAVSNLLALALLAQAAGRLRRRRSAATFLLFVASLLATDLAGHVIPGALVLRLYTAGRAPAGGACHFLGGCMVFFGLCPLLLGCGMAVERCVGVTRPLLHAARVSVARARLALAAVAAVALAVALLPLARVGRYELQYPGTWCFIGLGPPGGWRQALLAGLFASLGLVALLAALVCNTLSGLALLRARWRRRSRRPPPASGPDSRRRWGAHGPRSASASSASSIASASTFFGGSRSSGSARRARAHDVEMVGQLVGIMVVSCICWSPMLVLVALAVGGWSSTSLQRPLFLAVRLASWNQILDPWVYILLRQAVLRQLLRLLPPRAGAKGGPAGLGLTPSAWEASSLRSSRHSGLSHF
# Chain of Prostaglandin D2 receptor 2 (Q9Y5Y4 whole entry): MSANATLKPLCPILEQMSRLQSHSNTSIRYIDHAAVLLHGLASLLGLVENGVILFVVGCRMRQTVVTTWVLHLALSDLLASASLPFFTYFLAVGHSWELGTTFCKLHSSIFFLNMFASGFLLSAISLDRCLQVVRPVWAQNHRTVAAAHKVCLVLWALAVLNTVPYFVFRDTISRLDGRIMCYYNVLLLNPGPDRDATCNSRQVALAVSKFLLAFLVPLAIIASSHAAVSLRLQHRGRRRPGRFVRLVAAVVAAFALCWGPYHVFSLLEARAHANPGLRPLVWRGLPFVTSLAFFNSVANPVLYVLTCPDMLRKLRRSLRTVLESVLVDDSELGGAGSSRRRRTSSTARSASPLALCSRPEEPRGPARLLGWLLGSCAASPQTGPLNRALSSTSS
# Chain of Cytochrome P450 2C9 (P11712 whole entry): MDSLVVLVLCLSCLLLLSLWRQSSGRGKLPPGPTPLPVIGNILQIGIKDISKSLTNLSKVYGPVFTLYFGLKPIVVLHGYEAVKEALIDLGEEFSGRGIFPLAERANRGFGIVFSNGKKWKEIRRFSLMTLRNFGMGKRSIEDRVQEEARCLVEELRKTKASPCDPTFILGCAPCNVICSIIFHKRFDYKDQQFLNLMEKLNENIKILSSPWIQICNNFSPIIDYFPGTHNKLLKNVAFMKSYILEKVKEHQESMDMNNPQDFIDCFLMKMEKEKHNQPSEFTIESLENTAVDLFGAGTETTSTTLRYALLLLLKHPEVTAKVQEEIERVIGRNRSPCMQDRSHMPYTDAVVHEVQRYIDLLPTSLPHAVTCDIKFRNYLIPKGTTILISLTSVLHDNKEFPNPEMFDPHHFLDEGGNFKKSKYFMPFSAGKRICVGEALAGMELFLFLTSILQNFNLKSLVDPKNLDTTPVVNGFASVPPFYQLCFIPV
# Chain of Prostaglandin E2 receptor EP2 subtype (P43116 whole entry): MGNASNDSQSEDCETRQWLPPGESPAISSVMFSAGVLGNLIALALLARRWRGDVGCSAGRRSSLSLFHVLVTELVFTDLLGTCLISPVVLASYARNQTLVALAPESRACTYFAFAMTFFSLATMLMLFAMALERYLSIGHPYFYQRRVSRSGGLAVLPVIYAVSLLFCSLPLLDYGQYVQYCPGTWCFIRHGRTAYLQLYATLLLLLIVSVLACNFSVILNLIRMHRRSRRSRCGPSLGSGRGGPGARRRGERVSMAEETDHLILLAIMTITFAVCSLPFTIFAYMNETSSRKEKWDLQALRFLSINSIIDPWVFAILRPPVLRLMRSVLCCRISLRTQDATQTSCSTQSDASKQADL
# Chain of Cytochrome P450 1A2 (P05177 whole entry): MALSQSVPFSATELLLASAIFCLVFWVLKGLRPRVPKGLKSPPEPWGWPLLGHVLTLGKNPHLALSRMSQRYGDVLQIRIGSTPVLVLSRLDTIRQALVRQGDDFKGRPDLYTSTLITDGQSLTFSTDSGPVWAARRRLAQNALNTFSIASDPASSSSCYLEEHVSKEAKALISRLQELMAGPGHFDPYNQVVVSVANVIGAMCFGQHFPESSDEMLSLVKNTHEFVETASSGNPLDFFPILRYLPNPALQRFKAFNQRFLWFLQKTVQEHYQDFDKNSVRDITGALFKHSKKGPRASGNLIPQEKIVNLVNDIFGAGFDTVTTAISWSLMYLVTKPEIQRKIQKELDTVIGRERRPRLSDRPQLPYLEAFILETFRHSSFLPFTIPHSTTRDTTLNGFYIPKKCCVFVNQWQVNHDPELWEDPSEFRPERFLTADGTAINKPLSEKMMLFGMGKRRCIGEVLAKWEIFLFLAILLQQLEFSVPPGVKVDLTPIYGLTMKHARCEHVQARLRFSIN
# Chain of Cytochrome P450 2C8 (P10632 whole entry): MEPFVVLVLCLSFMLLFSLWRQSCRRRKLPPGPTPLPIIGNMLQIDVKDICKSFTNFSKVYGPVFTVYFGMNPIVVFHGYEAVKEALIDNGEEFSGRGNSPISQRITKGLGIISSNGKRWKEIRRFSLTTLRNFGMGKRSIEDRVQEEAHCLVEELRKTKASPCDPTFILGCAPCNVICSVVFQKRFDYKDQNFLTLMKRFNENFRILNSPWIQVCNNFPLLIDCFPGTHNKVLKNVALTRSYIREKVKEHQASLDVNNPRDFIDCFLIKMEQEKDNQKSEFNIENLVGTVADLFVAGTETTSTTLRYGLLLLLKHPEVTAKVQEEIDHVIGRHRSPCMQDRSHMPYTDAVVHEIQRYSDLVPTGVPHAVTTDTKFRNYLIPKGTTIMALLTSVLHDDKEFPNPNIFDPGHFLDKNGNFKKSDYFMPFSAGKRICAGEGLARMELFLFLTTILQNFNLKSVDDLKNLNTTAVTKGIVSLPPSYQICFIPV
# Chain of Cytochrome P450 2D6 (P10635 whole entry): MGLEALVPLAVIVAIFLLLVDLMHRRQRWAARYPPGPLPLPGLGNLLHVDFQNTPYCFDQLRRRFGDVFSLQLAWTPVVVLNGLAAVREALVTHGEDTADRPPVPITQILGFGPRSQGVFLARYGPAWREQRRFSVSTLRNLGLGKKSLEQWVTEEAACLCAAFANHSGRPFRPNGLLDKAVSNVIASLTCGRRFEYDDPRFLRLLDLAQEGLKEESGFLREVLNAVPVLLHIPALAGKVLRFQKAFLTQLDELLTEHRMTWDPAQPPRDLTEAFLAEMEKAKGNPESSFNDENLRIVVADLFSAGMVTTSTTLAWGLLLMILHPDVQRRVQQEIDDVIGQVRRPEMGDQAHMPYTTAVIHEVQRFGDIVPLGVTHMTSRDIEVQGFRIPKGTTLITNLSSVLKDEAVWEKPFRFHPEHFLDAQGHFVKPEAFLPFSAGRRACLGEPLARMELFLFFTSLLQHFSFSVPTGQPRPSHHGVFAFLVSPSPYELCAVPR
# Chain of Prostaglandin E2 receptor EP3 subtype (P43115 whole entry): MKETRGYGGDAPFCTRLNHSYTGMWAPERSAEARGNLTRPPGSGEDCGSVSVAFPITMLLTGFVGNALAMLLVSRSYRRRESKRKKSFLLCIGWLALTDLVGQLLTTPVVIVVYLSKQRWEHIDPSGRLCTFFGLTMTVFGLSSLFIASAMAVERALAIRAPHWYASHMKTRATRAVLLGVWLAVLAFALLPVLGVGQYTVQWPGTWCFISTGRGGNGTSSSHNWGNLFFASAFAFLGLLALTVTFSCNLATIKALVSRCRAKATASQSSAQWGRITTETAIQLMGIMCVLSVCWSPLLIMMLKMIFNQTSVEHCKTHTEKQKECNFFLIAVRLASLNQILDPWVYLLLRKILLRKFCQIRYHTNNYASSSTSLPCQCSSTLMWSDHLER
compound,measurement,setting,value
Cc1c(N2CCCC2)nc2ccc(Br)cc2c1C(=O)NC[C@H](CCC(=O)O)c1ccccc1Cl [BAY-6672],solubility thermodynamic,[1],290 µg/mL
same,solubility,[2],< 1 µg/mL
same,IC50,Cytochrome P450 2D6,> 20 µM
same,IC50,Cytochrome P450 2C9,> 20 µM
same,IC50,Cytochrome P450 2C8,> 20 µM
same,IC50,Cytochrome P450 1A2,> 20 µM
same,bioavailability,[3],91%
same,Papp at 2 h,[4],26.7 ×10⁻⁶ cm/s
same,IC50,Prostacyclin receptor,> 10 µM
same,clearance,[5],11.7 mL/min/kg
same,fraction unbound at 6 h,[6],< 0.01
same,IC50,[7],> 10 µM
same,IC50,[8],> 10 µM
same,IC50,[9],> 10 µM
same,IC50,[10],0.011 µM
same,IC50,[11],0.052 µM
same,IC50,[12],0.018 µM
same,IC50,[13],> 10 µM
same,fraction unbound at 6 h,[14],< 0.01
same,Fh at 1 µM,[15],66%
same,Fh at 1 µM,[16],18%
same,Drug metabolism,[17],Metabolite_Detected
same,Drug metabolism,[18],Metabolite_Detected
same,Drug metabolism,[19],Metabolite_Detected
same,Drug metabolism,[20],Metabolite_Detected
same,Drug metabolism,[21],Metabolite_Detected
same,clearance,[22],18.3 mL/min/kg
same,Vd,[23],2 L/kg
same,half-life,[24],3.4 h
same,bioavailability,[25],94%
same,Vd,[26],2.1 L/kg
same,clearance,[27],13.3 mL/min/kg
same,Vd,[28],1.8 L/kg
same,half-life,[29],14 h
same,bioavailability,[30],45%
same,Activity,[31],Non-Toxic
same,Activity,[32],Non-Toxic

# — ChEMBL document CHEMBL4665834 (J Med Chem, 2020)
